Residue numbers refer to the chain shown, from its start.

For data set [1], the target named is T1, KIF5B-RET WT in HEK293 cells (Homo sapiens, UniProt P07949).
T1 construct: expressed in transfected cells; host or cells: HEK293; the other entry of the earlier key: KIF5B (P33176, Kinesin-1 heavy chain)
T1 sequence (P07949 713-1063 limits assumed): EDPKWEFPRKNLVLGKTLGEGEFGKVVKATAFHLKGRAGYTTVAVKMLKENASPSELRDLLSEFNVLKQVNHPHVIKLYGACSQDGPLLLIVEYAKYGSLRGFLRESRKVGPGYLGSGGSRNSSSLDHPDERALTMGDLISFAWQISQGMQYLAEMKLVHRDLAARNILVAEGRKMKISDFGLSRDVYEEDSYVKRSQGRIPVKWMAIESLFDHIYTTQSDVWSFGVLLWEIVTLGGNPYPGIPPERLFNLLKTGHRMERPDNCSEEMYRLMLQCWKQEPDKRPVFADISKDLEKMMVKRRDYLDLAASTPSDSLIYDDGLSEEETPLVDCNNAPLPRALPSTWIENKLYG
The experiment in a line: RET cell assay (In-Cell Western, phospho-RET Y1062), wildtype. The class given is cell-based. Conditions: HEK293, doxycycline-induced KIF5B-RET WT, 1 hr compound treatment; read-out: EC50, inhibition of intracellular autophosphorylation of RET at tyrosine 1062, wildtype cells. Here is the method: (§1) Compounds of formulas (I), (II), and (III) are screened for their ability to inhibit the intracellular autophosphorylation of RET at tyrosine 1062 as detected by In-Cell Western. HEK293 cells containing a doxycycline-inducible plasmid for inducible expression of KIF5B-RET WT and RET mutant forms V804M and G810S are seeded at 25,000 cells/well into black poly-D-lysine pre-coated 384-well plates (Corning, Catalog No. 356697). Expression of KIF5B-RET is induced with doxycycline at 1 μg/mL and cells are incubated at 37° C. overnight. Compounds are prepared in a threefold serial dilution in DMSO before further diluting 1:100 in media prior to the addition to the cells (0.1% final DMSO concentration). Compound treatment is performed for 1 hr at 37° C. followed by fixation of cells with 4% formaldehyde for 20 min at RT and cell permeabilisation with ice-cold MeOH for 10 min at RT. Cells are incubated with Intercept® blocking buffer (Li—COR, Catalogue No. 927-70010) for 1 hr at RT. Incubation with primary antibodies against human phospho-RET (Y1062) (R&D, Catalogue No. AF5009, 1/250 dilution) and human glyceraldehyde-3-phosphate dehydrogenase (clone 6C5, Merck, Catalog No. MAB374, 1/1000 dilution) are performed overnight at 4° C. Incubation with secondary antibodies IRDye® 800CW goat anti-rabbit IgG (Li—COR, Catalogue No. 926-32211, 1/1000 dilution) and IRDye® 680CW goat anti-mouse IgG (Li—COR, Catalogue No. 926-68070, 1/1000 dilution) are performed for 1 hr at RT. All antibody dilutions are done in Intercept® blocking buffer containing 0.05% Tween20. After washing cells with PBS-T (Cell Signaling technology, Catalogue No. 9809), the images are acquired on a Li—COR Odyssey LCx at 700 and 800 nm. Percent of DMSO control is calculated with 100% signal referring to control conditions containing no compound (0.4% DMSO only) and 0% signal represented by conditions containing control compound. The % of DMSO control values are fit to a 4 parameter logistic curve, and the determined EC50 value is defined as the estimated concentration of inhibitor at the inflexion point of the fitted curve.

For data set [2], the target named is T2, KIF5B-RET mutant form V804M in HEK293 cells (Homo sapiens, UniProt P07949, V804M).
T2 construct: expressed in transfected cells; host or cells: HEK293; the other entry of the earlier key: KIF5B (P33176, Kinesin-1 heavy chain)
T2 sequence (P07949 713-1063 V804M limits assumed): T1 sequence (P07949 713-1063 limits assumed) with V92M
The experiment in a line: RET cell assay (In-Cell Western, phospho-RET Y1062), V804M. It is filed as cell-based. Conditions: HEK293, doxycycline-induced KIF5B-RET V804M, 1 hr compound treatment; read-out: EC50, inhibition of intracellular autophosphorylation of RET at tyrosine 1062, V804M cells. How it is done:
as §1

The target in data set [3] is T3, KIF5B-RET mutant form G810S in HEK293 cells (Homo sapiens, UniProt P07949, G810S).
T3 construct: expressed in transfected cells; host or cells: HEK293; the other entry of the earlier key: KIF5B (P33176, Kinesin-1 heavy chain)
T3 sequence (P07949 713-1063 G810S limits assumed): T1 sequence (P07949 713-1063 limits assumed) with G98S
The experiment in a line: RET cell assay (In-Cell Western, phospho-RET Y1062), G810S. Conditions: HEK293, doxycycline-induced KIF5B-RET G810S, 1 hr compound treatment; read-out: EC50, inhibition of intracellular autophosphorylation of RET at tyrosine 1062, G810S cells. The class given is cell-based. Here is the method:
as §1

In the case of `CC(C(=O)Nc1cc(C(C)(C)C(F)(F)F)on1)c1ccc(-c2nn(C3(C)CC3)c(N)c2C(N)=O)nc1` (single isomer, unassigned; isomer 1) [Example 31, 5-Amino-1-(1-methylcyclopropyl)-3-[5-[(1-[[5-[1,1,1-trifluoro-2-methylpropan-2-yl)-1,2-oxazol-3-yl]carbamoyl]ethyl]pyridin-2-yl]pyrazole-4-carboxamide, Isomer 1], the EC50 in data set [1], in data set [2] and in data set [3] was < 100 nM throughout.
With `CC(C(=O)Nc1cc(CC(C)(C)C)no1)c1ccc(-c2nn(C3(C)CC3)c(N)c2C(N)=O)nc1` (single isomer, unassigned; isomer 1) [Example 33, 5-Amino-3-[5-[1-[[3-(2,2-dimethylpropyl)-1,2-oxazol-5-yl]carbamoyl]ethyl]pyridin-2-yl]-1-(1-methylcyclopropyl)pyrazole-4-carboxamide, Isomer 1], the EC50 in data set [1], in data set [2] and in data set [3] was < 100 nM each time.
For the compound `CC(C(=O)Nc1cc(CC(C)(C)C)no1)c1ccc(-c2nn(C(C)C)c(N)c2C(N)=O)cc1` (single isomer, unassigned; isomer 2) [Example 2, 5-Amino-3-[4-(1-[[3-(2,2-dimethylpropyl)-1,2-oxazol-5-yl]carbamoyl]ethyl)phenyl]-1-isopropylpyrazole-4-carboxamide, Isomer 2], the melting point came to 128 °C.

As usually defined, the EC50 is the concentration that produces a half-maximal response. One may read the melting point as the temperature of the solid-liquid transition.

The record behind these values is patent US11613533B2, “Compounds useful for inhibiting RET kinase” (Eli Lilly and Company, priority 2020, dated 2023).
